Results from patent US20240000872A1, “NOVEL BACTERIOPHAGE THAT LYSES ACINETOBACTER GENUS BACTERIA HAVING RESISTANCE TO ANTIBIOTICS” (priority 2020, published 2024).

System: Acinetobacter baumannii strains
Assay: Antibiotic susceptibility test (CLSI disk diffusion test method, read per CLSI 2016); for antibiotic susceptibility S/I/R: key: ‘S’ means susceptible; ‘I’ means intermediate; ‘R’ means resistant; for susceptibility category (S/I/R): key: ‘S’ means susceptible; ‘I’ means intermediate; ‘R’ means resistant
Type: cell-based
Set-up: antibiotic susceptibility test value / susceptibility test value (number given before S/I/R) / antibiotic susceptibility value: unit not given here

cortrimoxazole
160: antibiotic susceptibility value (host strain YMC16/01/R353) | susceptibility test value (number given before S/I/R) (host strain YMC16/01/R353) | antibiotic susceptibility value (host strain YMC16/01/R397) | susceptibility test value (number given before S/I/R) (host strain YMC16/01/R397) | antibiotic susceptibility value (host strain YMC16/09/R2471) | susceptibility test value (number given before S/I/R) (host strain YMC16/09/R2471) | antibiotic susceptibility value (host strain YMC16/10/R2537) | susceptibility test value (number given before S/I/R) (host strain YMC16/10/R2537) | antibiotic susceptibility value (host strain YMC16/12/B11422) | susceptibility test value (number given before S/I/R) (host strain YMC16/12/B11422) | antibiotic susceptibility value (host strain YMC17/01/B10087) | susceptibility test value (number given before S/I/R) (host strain YMC17/01/B10087) | antibiotic susceptibility value (host strain YMC17/01/B13454) | susceptibility test value (number given before S/I/R) (host strain YMC17/01/B13454) | antibiotic susceptibility value (host strain YMC17/01/P518) | susceptibility test value (number given before S/I/R) (host strain YMC17/01/P518) | antibiotic susceptibility value (host strain YMC17/02/B4520) | susceptibility test value (number given before S/I/R) (host strain YMC17/02/B4520) | antibiotic susceptibility value (host strain YMC17/04/R488) | susceptibility test value (number given before S/I/R) (host strain YMC17/04/R488)
80: antibiotic susceptibility value (host strain YMC17/02/B4039) | susceptibility test value (number given before S/I/R) (host strain YMC17/02/B4039)
20: antibiotic susceptibility value (host strain YMC16/01/R380) | susceptibility test value (number given before S/I/R) (host strain YMC16/01/R380) | antibiotic susceptibility value (host strain YMC17/01/B12075) | susceptibility test value (number given before S/I/R) (host strain YMC17/01/B12075) | antibiotic susceptibility value (host strain YMC17/02/B4864) | susceptibility test value (number given before S/I/R) (host strain YMC17/02/B4864) | antibiotic susceptibility value (host strain YMC17/02/P523) | susceptibility test value (number given before S/I/R) (host strain YMC17/02/P523)
320: antibiotic susceptibility value (host strain YMC16/01/R405) | susceptibility test value (number given before S/I/R) (host strain YMC16/01/R405) | antibiotic susceptibility value (host strain YMC16/03/R4461) | susceptibility test value (number given before S/I/R) (host strain YMC16/03/R4461) | antibiotic susceptibility value (host strain YMC16/05/R2210) | susceptibility test value (number given before S/I/R) (host strain YMC16/05/R2210) | antibiotic susceptibility value (host strain YMC16/07/R2512) | susceptibility test value (number given before S/I/R) (host strain YMC16/07/R2512) | antibiotic susceptibility value (host strain YMC16/12/B11449) | susceptibility test value (number given before S/I/R) (host strain YMC16/12/B11449) | antibiotic susceptibility value (host strain YMC16/12/B13325) | susceptibility test value (number given before S/I/R) (host strain YMC16/12/B13325) | antibiotic susceptibility value (host strain YMC16/12/P503) | susceptibility test value (number given before S/I/R) (host strain YMC16/12/P503) | antibiotic susceptibility value (host strain YMC16/12/R4637) | susceptibility test value (number given before S/I/R) (host strain YMC16/12/R4637) | antibiotic susceptibility value (host strain YMC17/01/B8053) | susceptibility test value (number given before S/I/R) (host strain YMC17/01/B8053) | antibiotic susceptibility value (host strain YMC17/01/R2812) | susceptibility test value (number given before S/I/R) (host strain YMC17/01/R2812) | antibiotic susceptibility value (host strain YMC17/02/B14) | susceptibility test value (number given before S/I/R) (host strain YMC17/02/B14) | antibiotic susceptibility value (host strain YMC17/02/B87) | susceptibility test value (number given before S/I/R) (host strain YMC17/02/B87) | antibiotic susceptibility value (host strain YMC17/02/B721) | susceptibility test value (number given before S/I/R) (host strain YMC17/02/B721) | antibiotic susceptibility value (host strain YMC17/02/B8414) | susceptibility test value (number given before S/I/R) (host strain YMC17/02/B8414) | antibiotic susceptibility value (host strain YMC17/02/R541) | susceptibility test value (number given before S/I/R) (host strain YMC17/02/R541) | antibiotic susceptibility value (host strain YMC17/02/R2392) | susceptibility test value (number given before S/I/R) (host strain YMC17/02/R2392) | antibiotic susceptibility value (host strain YMC17/03/B4730) | susceptibility test value (number given before S/I/R) (host strain YMC17/03/B4730) | antibiotic susceptibility value (host strain YMC17/03/B5000) | susceptibility test value (number given before S/I/R) (host strain YMC17/03/B5000) | antibiotic susceptibility value (host strain YMC17/03/P971) | susceptibility test value (number given before S/I/R) (host strain YMC17/03/P971) | antibiotic susceptibility value (host strain YMC17/03/R348) | susceptibility test value (number given before S/I/R) (host strain YMC17/03/R348) | antibiotic susceptibility value (host strain YMC17/03/R585) | susceptibility test value (number given before S/I/R) (host strain YMC17/03/R585) | antibiotic susceptibility value (host strain YMC17/03/R1888) | susceptibility test value (number given before S/I/R) (host strain YMC17/03/R1888) | antibiotic susceptibility value (host strain YMC17/03/R3279) | susceptibility test value (number given before S/I/R) (host strain YMC17/03/R3279) | antibiotic susceptibility value (host strain YMC17/03/R4077) | susceptibility test value (number given before S/I/R) (host strain YMC17/03/R4077) | antibiotic susceptibility value (host strain YMC17/03/R4607) | susceptibility test value (number given before S/I/R) (host strain YMC17/03/R4607) | antibiotic susceptibility value (host strain YMC17/04/R640) | susceptibility test value (number given before S/I/R) (host strain YMC17/04/R640) | antibiotic susceptibility value (host strain YMC/17/05/R1095) | susceptibility test value (number given before S/I/R) (host strain YMC/17/05/R1095)
R: susceptibility category (S/I/R) (host strain YMC16/01/R353) | antibiotic susceptibility S/I/R (host strain YMC16/01/R397) | susceptibility category (S/I/R) (host strain YMC16/01/R397) | antibiotic susceptibility S/I/R (host strain YMC16/01/R405) | susceptibility category (S/I/R) (host strain YMC16/01/R405) | antibiotic susceptibility S/I/R (host strain YMC16/03/R4461) | susceptibility category (S/I/R) (host strain YMC16/03/R4461) | antibiotic susceptibility S/I/R (host strain YMC16/05/R2210) | susceptibility category (S/I/R) (host strain YMC16/05/R2210) | antibiotic susceptibility S/I/R (host strain YMC16/07/R2512) | susceptibility category (S/I/R) (host strain YMC16/07/R2512) | antibiotic susceptibility S/I/R (host strain YMC16/09/R2471) | susceptibility category (S/I/R) (host strain YMC16/09/R2471) | antibiotic susceptibility S/I/R (host strain YMC16/10/R2537) | susceptibility category (S/I/R) (host strain YMC16/10/R2537) | antibiotic susceptibility S/I/R (host strain YMC16/12/B11422) | susceptibility category (S/I/R) (host strain YMC16/12/B11422) | antibiotic susceptibility S/I/R (host strain YMC16/12/B11449) | susceptibility category (S/I/R) (host strain YMC16/12/B11449) | antibiotic susceptibility S/I/R (host strain YMC16/12/B13325) | susceptibility category (S/I/R) (host strain YMC16/12/B13325) | antibiotic susceptibility S/I/R (host strain YMC16/12/P503) | susceptibility category (S/I/R) (host strain YMC16/12/P503) | antibiotic susceptibility S/I/R (host strain YMC16/12/R4637) | susceptibility category (S/I/R) (host strain YMC16/12/R4637) | antibiotic susceptibility S/I/R (host strain YMC17/01/B8053) | susceptibility category (S/I/R) (host strain YMC17/01/B8053) | antibiotic susceptibility S/I/R (host strain YMC17/01/B10087) | susceptibility category (S/I/R) (host strain YMC17/01/B10087) | antibiotic susceptibility S/I/R (host strain YMC17/01/B13454) | susceptibility category (S/I/R) (host strain YMC17/01/B13454) | antibiotic susceptibility S/I/R (host strain YMC17/01/P518) | susceptibility category (S/I/R) (host strain YMC17/01/P518) | antibiotic susceptibility S/I/R (host strain YMC17/01/R2812) | susceptibility category (S/I/R) (host strain YMC17/01/R2812) | antibiotic susceptibility S/I/R (host strain YMC17/02/B14) | susceptibility category (S/I/R) (host strain YMC17/02/B14) | antibiotic susceptibility S/I/R (host strain YMC17/02/B87) | susceptibility category (S/I/R) (host strain YMC17/02/B87) | antibiotic susceptibility S/I/R (host strain YMC17/02/B721) | susceptibility category (S/I/R) (host strain YMC17/02/B721) | antibiotic susceptibility S/I/R (host strain YMC17/02/B4039) | susceptibility category (S/I/R) (host strain YMC17/02/B4039) | antibiotic susceptibility S/I/R (host strain YMC17/02/B4520) | susceptibility category (S/I/R) (host strain YMC17/02/B4520) | antibiotic susceptibility S/I/R (host strain YMC17/02/B8414) | susceptibility category (S/I/R) (host strain YMC17/02/B8414) | antibiotic susceptibility S/I/R (host strain YMC17/02/R541) | susceptibility category (S/I/R) (host strain YMC17/02/R541) | antibiotic susceptibility S/I/R (host strain YMC17/02/R2392) | susceptibility category (S/I/R) (host strain YMC17/02/R2392) | antibiotic susceptibility S/I/R (host strain YMC17/03/B4730) | susceptibility category (S/I/R) (host strain YMC17/03/B4730) | antibiotic susceptibility S/I/R (host strain YMC17/03/B5000) | susceptibility category (S/I/R) (host strain YMC17/03/B5000) | antibiotic susceptibility S/I/R (host strain YMC17/03/P971) | susceptibility category (S/I/R) (host strain YMC17/03/P971) | antibiotic susceptibility S/I/R (host strain YMC17/03/R348) | susceptibility category (S/I/R) (host strain YMC17/03/R348) | antibiotic susceptibility S/I/R (host strain YMC17/03/R585) | susceptibility category (S/I/R) (host strain YMC17/03/R585) | antibiotic susceptibility S/I/R (host strain YMC17/03/R1888) | susceptibility category (S/I/R) (host strain YMC17/03/R1888) | antibiotic susceptibility S/I/R (host strain YMC17/03/R3279) | susceptibility category (S/I/R) (host strain YMC17/03/R3279) | antibiotic susceptibility S/I/R (host strain YMC17/03/R4077) | susceptibility category (S/I/R) (host strain YMC17/03/R4077) | antibiotic susceptibility S/I/R (host strain YMC17/03/R4607) | susceptibility category (S/I/R) (host strain YMC17/03/R4607) | antibiotic susceptibility S/I/R (host strain YMC17/04/R488) | susceptibility category (S/I/R) (host strain YMC17/04/R488) | antibiotic susceptibility S/I/R (host strain YMC17/04/R640) | susceptibility category (S/I/R) (host strain YMC17/04/R640) | antibiotic susceptibility S/I/R (host strain YMC/17/05/R1095) | susceptibility category (S/I/R) (host strain YMC/17/05/R1095)
S: antibiotic susceptibility S/I/R (host strain YMC16/01/R380) | susceptibility category (S/I/R) (host strain YMC16/01/R380) | antibiotic susceptibility S/I/R (host strain YMC17/01/B12075) | susceptibility category (S/I/R) (host strain YMC17/01/B12075) | antibiotic susceptibility S/I/R (host strain YMC17/02/B4864) | susceptibility category (S/I/R) (host strain YMC17/02/B4864) | antibiotic susceptibility S/I/R (host strain YMC17/02/P523) | susceptibility category (S/I/R) (host strain YMC17/02/P523)
